According to paper PMC2948022 (Talanta, 2010):

What was measured:
[1] = Urine concentrations of; assay type: in vivo, human; conditions: CRPS patient, (R,S)-Ket 40 mg/h continuous infusion, morning of Day 3
[2] = Plasma concentrations of; conditions: CRPS patient, (R,S)-Ket 40 mg/h continuous infusion, morning of Day 3; estimated using the standard curve for (2S,6S); (2R,6R)-hydroxynorketamine
[3] = Relative; assay type: in vivo, human; conditions: CRPS patient urine, Day 3, AGP-CSP
[4] = cited from earlier work
[5] = cited from earlier work; remark: listed apart in the source
[6] = estimated using the standard curve for (2S,6S), (2R,6R)-hydroxynorketamine
[7] = estimated using the standard curve for (2S,6S)-hydroxyketamine

| SMILES | Urine [1, 6] [ng/mL] | Plasma [2] [ng/mL] | further results |
| --- | --- | --- | --- |
| NC1(c2ccccc2Cl)CC(O)CCC1=O (single isomer, unassigned) [Peak 4e] | 515 | 160 | – |
| N[C@]1(c2ccccc2Cl)CC[C@@H](O)CC1=O (single isomer, unassigned) [Peak 4f] | – | 141 | Urine (ng/ml) [1, 6]: 4,099 ng/ml |
| CNC1(c2ccccc2Cl)CCCCC1=O (single isomer, unassigned; peak 1) [Peak 1, (R.S)-Ketamine] | – | – | relative enantiomeric urine concentration (R)-/(S)- [3]: 1.0 |
| N[C@@]1(c2ccccc2Cl)CCC[C@@H](O)C1=O (single isomer, unassigned; peak 4a) [Peak 4a] | – | – | anesthetic activity [4]: no anesthetic activity; concentration in the CNS [5]: reaches significant concentration in the CNS |
| NC1(c2ccccc2Cl)CCCC(O)C1=O (single isomer, unassigned; peak 4b) [Peak 4b] | 572 | 881 | – |
| N[C@]1(c2ccccc2Cl)CC[C@H](O)CC1=O (single isomer, unassigned; peak 4c) [Peak 4c] | 940 | 245 | – |
| N[C@]1(c2ccccc2Cl)C[C@@H](O)CCC1=O (single isomer, unassigned; peak 4d) [Peak 4d] | 475 | 145 | – |
| CN[C@]1(c2ccccc2Cl)CC[C@H](O)CC1=O (single isomer, unassigned; peak 5c) [Peak 5c] | – | – | Urine [1, 7]: 4 ng/mL |
| CN[C@@]1(c2ccccc2Cl)CC[C@H](O)CC1=O (single isomer, unassigned; peak 5d) [Peak 5d] | – | – | Urine [1, 7]: 5 ng/mL |
